Experimental data published in ChEMBL document CHEMBL1201862, “PubChem BioAssay data set” (2004).
Activity calls are given as the source filed them.

What was measured:
[1] = target: T1, Rac GTPase-activating protein 1 (Homo sapiens, UniProt Q9H0H5); test: blockers of MgcRacGAP-driven Rac1 GTP hydrolysis – biochemical, ADP Hunter fluorescence, primary and confirmatory, confirmation (AID 624330); assay type: functional
T1 sequence (Q9H0H5 whole entry): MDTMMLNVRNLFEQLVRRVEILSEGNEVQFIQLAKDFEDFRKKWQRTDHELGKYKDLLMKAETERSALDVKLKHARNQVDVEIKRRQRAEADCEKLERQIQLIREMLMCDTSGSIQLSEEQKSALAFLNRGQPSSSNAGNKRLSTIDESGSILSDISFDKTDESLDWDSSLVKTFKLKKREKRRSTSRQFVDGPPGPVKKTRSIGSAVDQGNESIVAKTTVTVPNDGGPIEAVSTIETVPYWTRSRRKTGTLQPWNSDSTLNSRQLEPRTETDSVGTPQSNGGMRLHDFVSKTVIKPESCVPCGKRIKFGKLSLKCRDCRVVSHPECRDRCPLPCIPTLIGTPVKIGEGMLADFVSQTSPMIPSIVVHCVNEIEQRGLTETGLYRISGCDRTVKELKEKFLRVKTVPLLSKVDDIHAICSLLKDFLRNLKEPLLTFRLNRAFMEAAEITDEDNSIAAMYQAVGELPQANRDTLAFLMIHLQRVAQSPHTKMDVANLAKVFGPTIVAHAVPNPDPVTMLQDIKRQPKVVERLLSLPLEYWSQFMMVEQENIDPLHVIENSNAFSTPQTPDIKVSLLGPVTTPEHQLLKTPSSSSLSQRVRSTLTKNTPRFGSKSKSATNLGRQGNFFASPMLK

[2] = system: Streptococcus sp. 'group A'; test: Streptococcus pyogenes SK(-)GAS viability under kanamycin – luminescence, BacTiterGlo, confirmation, counter-screen for streptokinase expression inhibitor project, dose response (AID 1900); assay type: functional, organism-based
Streptokinase A = target: T2, Streptokinase A (Streptococcus pyogenes serotype M1, UniProt P10520); test: viability-normalized secreted streptokinase activity reduction – plasminogen activation absorbance, OD405, dose response (AID 1914); assay type: functional, Streptococcus pyogenes M1 GAS;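 further: secreted streptokinase activity via plasminogen activation per viability signal from cell pellet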
T2 sequence (P10520 whole entry): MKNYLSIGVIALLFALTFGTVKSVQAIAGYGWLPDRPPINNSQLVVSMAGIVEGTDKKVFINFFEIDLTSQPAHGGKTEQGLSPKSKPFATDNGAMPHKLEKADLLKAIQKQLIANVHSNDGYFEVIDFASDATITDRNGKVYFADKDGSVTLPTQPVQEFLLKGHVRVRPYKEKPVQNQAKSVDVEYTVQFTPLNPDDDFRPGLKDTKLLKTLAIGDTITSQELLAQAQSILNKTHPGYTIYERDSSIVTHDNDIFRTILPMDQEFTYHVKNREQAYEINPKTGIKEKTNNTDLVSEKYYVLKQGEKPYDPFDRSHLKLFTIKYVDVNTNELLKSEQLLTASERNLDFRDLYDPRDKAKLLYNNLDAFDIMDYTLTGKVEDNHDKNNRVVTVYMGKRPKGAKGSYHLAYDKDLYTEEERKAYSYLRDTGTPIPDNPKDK

Streptococcus = test: GAS UMAA2166 growth inhibition – luminescence, BacTiterGlo, counter-screen for streptokinase expression inhibitor project, dose response (AID 1915); assay type: functional, organism-based;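 further: potency for reduction of bacterial viability or growth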
[3] = target: T3, Heat shock factor protein 1 (Mus musculus, UniProt P38532); test: decrease of HSF1-responsive luciferase luminescence – cell-based, NIH3T3, dose retest, confirmation (AID 2382); assay type: functional;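 further: NIH3T3 fibroblasts with HSF1-driven luciferase reporter stressed by proteasome inhibitor MG132; luminescence from HSF1-driven luciferase expression after 8 hours of MG132 stress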
T3 sequence (P38532 whole entry): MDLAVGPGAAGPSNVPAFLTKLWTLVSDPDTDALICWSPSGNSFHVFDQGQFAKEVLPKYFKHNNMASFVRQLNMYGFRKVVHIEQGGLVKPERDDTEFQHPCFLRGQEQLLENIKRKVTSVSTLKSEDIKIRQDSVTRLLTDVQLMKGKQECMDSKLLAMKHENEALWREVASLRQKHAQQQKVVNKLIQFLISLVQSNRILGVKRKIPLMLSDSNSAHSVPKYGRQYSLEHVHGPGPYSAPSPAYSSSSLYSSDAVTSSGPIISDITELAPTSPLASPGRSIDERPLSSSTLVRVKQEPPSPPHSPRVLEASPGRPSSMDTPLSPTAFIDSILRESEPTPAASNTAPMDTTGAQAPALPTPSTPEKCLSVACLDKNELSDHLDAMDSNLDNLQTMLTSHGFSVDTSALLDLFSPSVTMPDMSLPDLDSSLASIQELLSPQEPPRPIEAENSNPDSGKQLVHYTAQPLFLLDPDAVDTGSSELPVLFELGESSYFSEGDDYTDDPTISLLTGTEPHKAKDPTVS

[4] = target: T4, Corticotropin-releasing factor receptor 2/Corticotropin-releasing factor-binding protein (Homo sapiens, UniProt P24387+Q13324); test: activators of CRF receptor 2 with binding protein – uHTS hits, confirmation (AID 602473); assay type: functional; details: read-out: EC50_Mean
T4 sequence (Q13324 whole entry): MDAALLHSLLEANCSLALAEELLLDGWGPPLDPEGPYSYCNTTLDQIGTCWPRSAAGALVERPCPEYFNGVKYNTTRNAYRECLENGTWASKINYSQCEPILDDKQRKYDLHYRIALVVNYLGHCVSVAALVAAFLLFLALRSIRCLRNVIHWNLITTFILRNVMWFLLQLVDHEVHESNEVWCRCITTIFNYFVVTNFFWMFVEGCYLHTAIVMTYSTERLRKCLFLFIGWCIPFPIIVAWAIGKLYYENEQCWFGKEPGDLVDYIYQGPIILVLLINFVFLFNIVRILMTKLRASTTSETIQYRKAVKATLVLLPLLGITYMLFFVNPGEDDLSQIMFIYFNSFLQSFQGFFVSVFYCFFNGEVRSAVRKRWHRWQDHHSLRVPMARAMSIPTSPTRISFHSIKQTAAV
T4 sequence (P24387 whole entry): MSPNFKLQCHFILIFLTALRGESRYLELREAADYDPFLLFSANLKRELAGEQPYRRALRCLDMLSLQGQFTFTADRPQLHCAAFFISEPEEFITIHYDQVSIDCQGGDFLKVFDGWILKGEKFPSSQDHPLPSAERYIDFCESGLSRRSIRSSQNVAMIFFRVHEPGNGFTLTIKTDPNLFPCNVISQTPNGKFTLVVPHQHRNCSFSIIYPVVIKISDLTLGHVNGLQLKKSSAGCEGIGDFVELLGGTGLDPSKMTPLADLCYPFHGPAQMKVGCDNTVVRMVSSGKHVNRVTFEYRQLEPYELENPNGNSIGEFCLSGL

[5] = Luminescence Cell-Based Dose Retest to Confirm Inhibitors of Cancer Stem Cells. [Related pubchem assays (depositor defined):AID2717, AID2721]; assay type: functional; details: Homo sapiens
Cytochrome P450 2C19 = Cytochrome P450 2C19 (Homo sapiens, UniProt P33261); test: Cytochrome panel assay with activity outcomes. Panel member name: p450-cyp2c19 Compounds with AC50 equal or less than 10 uM are considered active; assay type: functional; details: read-out: AC50
Cytochrome P450 1A2 = target: T5, Cytochrome P450 1A2 (Homo sapiens, UniProt P05177);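 further: PubChem cytochrome P450 panel assay, CYP1A2 panel member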
T5 sequence (P05177 whole entry): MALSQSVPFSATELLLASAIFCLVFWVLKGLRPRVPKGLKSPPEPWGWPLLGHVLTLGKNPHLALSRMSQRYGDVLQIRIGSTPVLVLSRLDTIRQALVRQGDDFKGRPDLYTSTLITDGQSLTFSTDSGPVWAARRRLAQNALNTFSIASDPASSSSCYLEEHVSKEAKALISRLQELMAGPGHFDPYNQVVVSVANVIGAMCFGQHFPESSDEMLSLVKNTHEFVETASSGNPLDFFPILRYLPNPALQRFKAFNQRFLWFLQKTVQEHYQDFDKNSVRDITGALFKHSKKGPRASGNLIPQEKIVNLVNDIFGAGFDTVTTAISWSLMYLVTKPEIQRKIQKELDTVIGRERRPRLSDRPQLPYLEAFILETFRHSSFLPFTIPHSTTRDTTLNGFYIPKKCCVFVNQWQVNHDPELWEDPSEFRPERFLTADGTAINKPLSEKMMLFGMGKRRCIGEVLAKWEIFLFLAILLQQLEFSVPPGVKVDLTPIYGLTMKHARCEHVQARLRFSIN

Cytochrome P450 3A4 = Cytochrome P450 3A4 (Homo sapiens, UniProt P08684);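 further: CYP3A4 tested as one member of a cytochrome P450 panel screen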
Cytochrome P450 2C9 = Cytochrome P450 2C9 (Homo sapiens, UniProt P11712)
Sequence of Cytochrome P450 2C9 (P11712 whole entry): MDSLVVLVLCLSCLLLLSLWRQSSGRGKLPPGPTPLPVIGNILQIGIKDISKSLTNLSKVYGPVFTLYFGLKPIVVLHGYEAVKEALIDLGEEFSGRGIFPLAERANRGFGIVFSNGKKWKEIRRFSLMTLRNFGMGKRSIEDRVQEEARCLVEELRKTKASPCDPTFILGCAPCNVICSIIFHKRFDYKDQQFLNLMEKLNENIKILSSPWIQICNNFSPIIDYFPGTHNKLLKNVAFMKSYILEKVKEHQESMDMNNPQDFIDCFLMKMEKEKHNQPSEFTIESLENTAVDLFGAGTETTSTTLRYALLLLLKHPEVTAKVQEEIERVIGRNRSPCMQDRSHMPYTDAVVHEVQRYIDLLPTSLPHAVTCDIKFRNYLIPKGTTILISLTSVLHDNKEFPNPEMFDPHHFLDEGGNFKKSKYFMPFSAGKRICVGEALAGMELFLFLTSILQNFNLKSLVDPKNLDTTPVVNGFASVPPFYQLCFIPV

Sequence of Cytochrome P450 3A4 (P08684 whole entry): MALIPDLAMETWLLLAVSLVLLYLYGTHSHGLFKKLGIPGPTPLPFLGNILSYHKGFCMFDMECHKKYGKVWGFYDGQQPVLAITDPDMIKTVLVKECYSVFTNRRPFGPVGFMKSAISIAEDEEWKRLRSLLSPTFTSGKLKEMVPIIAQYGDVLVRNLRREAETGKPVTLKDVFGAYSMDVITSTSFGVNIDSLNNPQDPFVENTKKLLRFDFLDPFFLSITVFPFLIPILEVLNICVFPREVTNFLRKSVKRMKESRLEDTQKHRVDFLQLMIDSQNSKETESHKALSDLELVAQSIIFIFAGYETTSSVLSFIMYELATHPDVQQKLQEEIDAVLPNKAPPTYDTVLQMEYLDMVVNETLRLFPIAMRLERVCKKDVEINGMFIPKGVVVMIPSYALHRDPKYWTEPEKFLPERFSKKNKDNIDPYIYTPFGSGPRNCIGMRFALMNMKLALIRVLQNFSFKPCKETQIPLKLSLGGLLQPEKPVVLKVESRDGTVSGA
Sequence of Cytochrome P450 2C19 (P33261 whole entry): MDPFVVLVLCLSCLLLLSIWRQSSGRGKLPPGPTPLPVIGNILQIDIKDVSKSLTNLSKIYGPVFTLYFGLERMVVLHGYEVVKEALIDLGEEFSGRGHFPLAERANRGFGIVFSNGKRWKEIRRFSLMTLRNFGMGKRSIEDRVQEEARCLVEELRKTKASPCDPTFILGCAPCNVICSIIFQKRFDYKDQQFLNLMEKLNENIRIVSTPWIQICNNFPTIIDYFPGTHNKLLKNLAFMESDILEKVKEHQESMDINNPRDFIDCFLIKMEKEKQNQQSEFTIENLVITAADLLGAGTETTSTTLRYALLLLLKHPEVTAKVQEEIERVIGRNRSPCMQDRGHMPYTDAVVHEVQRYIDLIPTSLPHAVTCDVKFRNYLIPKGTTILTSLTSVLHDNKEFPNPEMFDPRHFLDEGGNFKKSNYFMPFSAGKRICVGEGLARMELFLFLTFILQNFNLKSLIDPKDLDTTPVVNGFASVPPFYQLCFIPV

Row | SMILES | EC50 [2] | EC50 (Streptokinase A) | EC50 (Streptococcus) | also measured
1 | Nc1cc(C(F)(F)F)ccc1N1CCOCC1 |  |  |  | IC50 [1]: 29.9 µM (active)
2 | CCCn1cc(CN2CCC(n3nccc3NC(=O)c3ccccc3)CC2)c(C)n1 | > 150 µM (not active) | > 150 µM (not active) | > 150 µM (not active) | 
3 | Cc1cc(C)n(CC(C)NC(=O)c2cc(COc3ccc(F)c(F)c3)on2)n1 (stereo not drawn) |  |  |  | EC50 [3]: > 195 µM (not active)
4 | COc1cnc(-c2ccccn2)nc1Oc1ccccc1 | > 150 µM (not active) | > 150 µM (not active) | > 150 µM (not active) | 
5 | COc1cc(OC)c(OC)cc1/C=N/N(C)c1ccccc1 |  |  |  | IC50 [1]: 43.7 µM (active)
6 | COc1ccc2oc(C(=O)OCC(=O)N(C)CC(=O)Nc3ccc(C)cc3)c(C)c2c1 |  |  |  | EC50 [3]: > 195 µM (not active)
7 | O=C(CCN1CCCCCC1)Nc1ccc2c(c1)OCCO2 |  |  |  | IC50 [1]: 338 µM (active)
8 | C/C=C(\C)C(=O)OC1CC(C)(C)C[C@H]2C3=CC[C@@H]4[C@@]5(C)CCC(O[C@@H]6O[C@@H](C(=O)O)[C@@H](O)C(O[C@@H]7OC[C@H](O)[C@@H](O)[C@@H]7O[C@@H]7OC(CO)C(O)[C@@H](O)[C@@H]7O)C6O[C@@H]6OC(CO)C(O)C(O)C6O)[C@@](C)(CO)[C@@H]5CC[C@]4(C)[C@]3(C)CC(O)[C@@]12CO (stereo partly drawn) |  |  |  | EC50 [4]: 11.4 µM (active)
9 | Cc1cc(C(C)(C)C)cc(C)c1COC(=O)c1cccnc1 | 15.8 µM (active) | > 150 µM (not active) | > 150 µM (not active) | 
10 | c1ccc(-c2nc(C3CCCCC3)c3sccc3n2)cc1 | 4.26 µM (active) | 23.9 µM (active) | 15.5 µM (active) | 
11 | O=C(CNC(=O)C1COc2ccccc2O1)N/N=C/c1ccc(O)cc1O (stereo not drawn) |  |  |  | AC50 [5]: 6.23 µM (active); IC50 [1]: 71.7 µM (active)
12 | CO[C@@]1(NC(=O)Cc2cccs2)C(=O)N2C(C(=O)O)=C(COC(N)=O)CS[C@@H]21 [CEFOXITIN SODIUM] | 5.58 µM (active) | > 150 µM (not active) | 16.2 µM (active) | 
13 | O=[N+]([O-])c1ccc(-c2ccc(/C=N/Nc3nc(N4CCCC4)nc(N4CCCC4)n3)o2)cc1 |  |  |  | EC50 [4]: 2.8 µM (active)
14 | c1ccc(OCc2nc3c4c(ncn3n2)-c2ccccc2CC42CCCC2)cc1 | 114 µM (active) | 22 µM (active) | > 150 µM (not active) | 
15 | C/C(=N\NC(=O)C1CC1c1ccccc1)c1cccs1 (stereo not drawn) |  |  |  | AC50 (Cytochrome P450 2C19): 2.24 µM (inconclusive); AC50 (Cytochrome P450 1A2): 15.8 µM (inconclusive); AC50 (Cytochrome P450 3A4): 8.91 µM (inconclusive); AC50 (Cytochrome P450 2C9): 11.2 µM (inconclusive)
16 | CCC(C(=O)NCC1CCCO1)n1nc(C)c2sc3ccccc3c2c1=O (stereo not drawn) | > 150 µM (not active) | > 150 µM (not active) | > 150 µM (not active) | 
17 | O=C(NCc1ccc(OC(F)(F)F)cc1)c1cccc2c1C(=O)c1ccc(N3CCC(Cc4ccccc4)CC3)cc1S2(=O)=O |  |  |  | EC50 [4]: 8.45 µM (active)
18 | COc1cc(C)ccc1NC(=O)Cc1csc(NC(=O)Nc2ccccc2OC)n1 | 15.4 µM (active) | 104 µM (active) | > 150 µM (not active) | 
19 | COc1ccc(-c2c(C#N)c(N)nc3sc(C(=O)c4ccccc4)c(N)c23)cc1 | 5.29 µM (active) | > 150 µM (not active) | > 150 µM (not active) | 
20 | N#Cc1c(NC(=S)NC(=O)C2CCCC2)sc2c1CCCCC2 | 8.59 µM (active) | 2.9 µM (active) | 27.1 µM (active) | 
21 | Cc1nn(-c2ccccc2)c(Cl)c1C1C(C#N)=C(N)OC2=C1C(=O)CC(C)(C)C2 (stereo not drawn) | 1.4 µM (active) | > 150 µM (not active) | 16.1 µM (active) | 
22 | COc1ccc(CNC(=O)CN(C)Cc2ccc(C(C)(C)C)cc2)cc1 |  |  |  | IC50 [1]: 106 µM (active)
23 | O=S(=O)(c1ccc2ccccc2c1)N1CCN(c2ccc(O)cc2)CC1 |  |  |  | AC50 [5]: 6.17 µM (active); IC50 [1]: 35.8 µM (active)
24 | O=C(CNCC1CCCO1)Nc1ccc(N2CCCCCC2)cc1 (stereo not drawn) |  |  |  | IC50 [1]: 62.7 µM (active)
25 | Cn1c(=O)n(C)c2cc(/C=N/NC(=O)c3ccc(Cl)cc3Cl)ccc21 |  |  |  | AC50 (Cytochrome P450 1A2): 14.1 µM (inconclusive); AC50 (Cytochrome P450 3A4): 0.0398 µM (inconclusive); AC50 (Cytochrome P450 2C9): 39.8 µM (inconclusive)
26 | COc1cccc(Cn2c(=O)c(-c3cccs3)nc3cnc(OCc4ccccc4)nc32)c1 |  |  |  | AC50 (Cytochrome P450 1A2): 1.58 µM (inconclusive); AC50 (Cytochrome P450 3A4): 7.94 µM (inconclusive); AC50 (Cytochrome P450 2C9): 0.631 µM (inconclusive)
27 | CCn1c(-c2ccccc2)c[nH]c1=S |  | > 150 µM (not active) |  | 
28 | Cc1ccc(-c2cc(-c3ccccc3Cl)[nH]n2)c(O)c1 | 6.71 µM (active) | 20.1 µM (inconclusive) | 13.6 µM (active) | 
29 | COc1cc(C=C2NC(=O)NC2=O)ccc1O |  |  |  | IC50 [1]: 19 µM (active)
30 | Cc1ccsc1/C=C1\Oc2cc(O)ccc2C1=O |  |  |  | EC50 [4]: 11.1 µM (active)
